Experimental data: patent US20060128792A1, “Deguelin as a chemopreventive agent for lung cancer” (priority 2002, published 2006)
Values joined by “and” are separate entries in the source; they are usually repeats but may differ in a detail not shown here. Equal values may be shown once.

Key:
ERK1/2 (MAPK) = test: ERK 1/2 kinase assay (MBP phosphorylation, immunoprecipitate of treated cells); assay type: cell-based; details: 1799 cells, 10^−7 M deguelin
Procedure: ERK 1/2 Kinase assay. ERK1/2 activity was determined by analyzing MAPK-induced phosphorylation of myelin basic protein (MBP) as previously described (Lee et al., 2002). Briefly, 1799 cells cultured in KSFM containing 10^−7 M deguelin for different time periods were lysed in lysis buffer, and ERK-1 and -2 were immunoprecipitated from 100 μg of cell extracts with antibodies (1 μg) that recognize ERK-1 and -2 (Santa Cruz Biotechnology) by rotation at 4° C. for overnight. The total volume was adjusted to 0.5 ml with lysis buffer. Protein A sepharose beads (20 μl) (Amersham Pharmacia Biotech) were added and incubated at 4° C. for 2 hour. The beads were washed three times with lysis buffer and once with kinase buffer (20 MM Hepes [pH 7.5], 20 mM β-glycerol phosphate, 10 mM PNPP, 10 mM MgCl2, 1 mM dithiothreitol, 50 mM sodium vanadate). Kinase assays were performed by incubating the beads with 30 μl kinase buffer to which […], 5 μCi [γ^32P] ATP (2000 cpm/pmol), and 2 μg MBP (Cell Signaling Technology) were added. The kinase reaction was performed at 30° C. for 20 min. The samples were suspended in Laemmli buffer, boiled for 5 min, and the samples were analyzed by SDS-PAGE. The gel was dried and autoradiographed.

H460 = test: MTT assay, growth inhibition by deguelin or deguelin derivatives; assay type: cell-based; details: H460, 3 days
[1] = system: pAkt (Ser473) and pGSK-3β (Ser9) in 1799 cells; test: Western blot of pAkt (Ser473) and pGSK-3β (Ser9); assay type: cell-based
Procedure: Immunoblotting. Whole cell lysates were prepared in lysis buffer (50 mM N-[2-[…]]-piperazine-N′-[2-ethanesulfonic acid] [HEPES; pH 7.5], 150 mM NaCl, 1.5 mM MgCl2, ImM EDTA, 0.2 mM EGTA, 1% NP40, 10% glycerol, 1 mM dithiothreitol (DTT), 1 mM phenylmethylsulfonyl fluoride, 20 mM sodium fluoride, 5 mM sodium orthovanadate, 10 μg/ml aprotinin, 10 μg/ml leupeptin, 2 μg/ml pepstatin, and 1 mM benzamidine) as described previously (Lee et al., 2002). Equivalent protein concentrations were resolved in sodium dodecyl sulfate-polyacrylamide gels and transferred to a nitrocellulose membrane. After the blocking of transblotted membrane in Tris-buffered saline (TBS) containing 0.05% Tween 20 (TBST) and 5% low fat milk, themembrane was incubated with primary antibody at the appropriate dilution in TBS-5% low-fat milk at 4° C. for 16 h and washed with TBST. The immunoblots were visualized using the ECL kit (Amersham, Inc., Arlington Heights, III) according to the manufacturer's directions. Rabbit polyclonal antibodies against human pAkt (Ser473), Akt, and pGSK-3β (Ser9), and mouse monoclonal antibody against human anti-pMAPK (Thr202/Tyr204) were purchased from Cell Signalinng Technology (Beverly, Mass.). […]

1799 cells = test: Cell cycle analysis by flow cytometry (propidium iodide); assay type: cell-based; details: 3 days
Procedure: (§1) Cell Cycle Analysis. Cells were plated on 10-cm dishes 1 day before treatment. After treatment with deguelin for 3 days, floating and adherent cells were harvested by trypsinization, fixed with 1% paraformaldehyde and 70% ethanol, stained with propidium iodide PI), and subjected to flow cytomnetric analysis to determine the percentages of cells in specific phases of the cell cycle (G1, S, and G2/M) as described previously (Sun et al., 1997).

NHBE cells = test: as above; assay type: cell-based; details: 3 days
Procedure: as §1

Cal6 = test: MTT assay, growth inhibition by deguelin or deguelin derivatives; assay type: cell-based; details: 3 days
Sk-mes = test: as above; assay type: cell-based; details: 3 days
H322 = test: as above; assay type: cell-based; details: H322, 3 days
[2] = system: bFGF-induced angiogenesis; test: Matrigel plug assay, bFGF-induced angiogenesis; assay type: in vivo, nude mice; details: 5 nmole deguelin plus bFGF, seven days
Procedure: Inhibition of angiogenesis by deguelin was also evaluated using the Matrigel™ plug assay, an established in vivo angiogenesis model, using nude mice. Matrigel alone was used as a negative control, 100 ng/ml bFGF and 72 units/ml heparin in a vehicle of 0.1% BSA/PBS (bFGF) for a positive control, 5 nmole deguelin alone, and 5 nmole deguelin plus bFGF were included. Seven days after injection, mice were sacrificed. […] 1, 1 and 10 μM concentrations of deguelin in these cells. All of these findings indicated the anti-angiogenic activity of deguelin.

COc1cc2c(cc1OC)[C@@H]1C(=O)c3ccc4c(c3O[C@@H]1CO2)C=CC(C)(C)O4 [Deguelin]
MAPK activity (ERK1/2 (MAPK)): not affected
Avg. % con (H460; deguelin 10^−6M): 0.17 % con
MTT value, mean of replicates (unheaded line) (H460; deguelin 10^−6M): 0.129
MTT value, replicate (unheaded line) (H460; deguelin 10^−6M): 0.115 and 0.141 and 0.131
Avg. % con (H460; deguelin 10^−8M): 0.86 % con
MTT value, mean of replicates (unheaded line) (H460; deguelin 10^−8M): 0.635
MTT value, replicate (unheaded line) (H460; deguelin 10^−8M): 0.632 and 0.652 and 0.62
Avg. % con (H460; deguelin 10^−10M): 1.03 % con
MTT value, mean of replicates (unheaded line) (H460; deguelin 10^−10M): 0.762
MTT value, replicate (unheaded line) (H460; deguelin 10^−10M): 0.783 and 0.761 and 0.743
Avg. % con (H460; deguelin 10^−12M): 1.06 % con
MTT value, mean of replicates (unheaded line) (H460; deguelin 10^−12M): 0.788
MTT value, replicate (unheaded line) (H460; deguelin 10^−12M): 0.797 and 0.75 and 0.816
pAkt level, time course ([1]; 10^−7 M deguelin): reduced after 7 h of treatment and was virtually undetectable after 14 h
levels of pAkt (Ser473) and pGSK-3β (Ser9) ([1]; time-dependent, Akt, GSK-3α/β and β-Actin not affected): decreased
1799 cells accumulated at the G2/M phase (1799 cells; 10^−7 M deguelin): 40.2%
1799 cells accumulated at the G2/M phase (1799 cells; 10^−8 M deguelin): 17.3%
change in NHBE cell cycle (NHBE cells): did not induce detectable change
Avg. % con (Cal6; deguelin 10^−6M): 0.24 % con
MTT value, mean of replicates (unheaded line) (Cal6; deguelin 10^−6M): 0.094
MTT value, replicate (unheaded line) (Cal6; deguelin 10^−6M): 0.098 and 0.106 and 0.078
Avg. % con (Cal6; deguelin 10^−8M): 0.88 % con
MTT value, mean of replicates (unheaded line) (Cal6; deguelin 10^−8M): 0.345
MTT value, replicate (unheaded line) (Cal6; deguelin 10^−8M): 0.356 and 0.338 and 0.341
Avg. % con (Cal6; deguelin 10^−10M): 0.93 % con
MTT value, mean of replicates (unheaded line) (Cal6; deguelin 10^−10M): 0.364
MTT value, replicate (unheaded line) (Cal6; deguelin 10^−10M): 0.332 and 0.386 and 0.374
Avg. % con (Cal6; deguelin 10^−12M): 0.92 % con
MTT value, mean of replicates (unheaded line) (Cal6; deguelin 10^−12M): 0.360
MTT value, replicate (unheaded line) (Cal6; deguelin 10^−12M): 0.357 and 0.358 and 0.366
Avg. % con (Sk-mes; deguelin 10^−6M): 0.45 % con
MTT value, mean of replicates (unheaded line) (Sk-mes; deguelin 10^−6M): 0.121
MTT value, replicate (unheaded line) (Sk-mes; deguelin 10^−6M): 0.107 and 0.135 and 0.122
Avg. % con (Sk-mes; deguelin 10^−8M): 0.79 % con
MTT value, mean of replicates (unheaded line) (Sk-mes; deguelin 10^−8M): 0.211
MTT value, replicate (unheaded line) (Sk-mes; deguelin 10^−8M): 0.207 and 0.209 and 0.216
Avg. % con (Sk-mes; deguelin 10^−10M): 0.92 % con
MTT value, mean of replicates (unheaded line) (Sk-mes; deguelin 10^−10M): 0.247
MTT value, replicate (unheaded line) (Sk-mes; deguelin 10^−10M): 0.243 and 0.223 and 0.274
Avg. % con (Sk-mes; deguelin 10^−12M): 0.96 % con
MTT value, mean of replicates (unheaded line) (Sk-mes; deguelin 10^−12M): 0.258
MTT value, replicate (unheaded line) (Sk-mes; deguelin 10^−12M): 0.253 and 0.258 and 0.264
Avg. % con (H322; deguelin 10^−6M): 0.49 % con
MTT value, mean of replicates (unheaded line) (H322; deguelin 10^−6M): 0.094
MTT value, replicate (unheaded line) (H322; deguelin 10^−6M): 0.096 and 0.087 and 0.1
Avg. % con (H322; deguelin 10^−8M): 0.89 % con
MTT value, mean of replicates (unheaded line) (H322; deguelin 10^−8M): 0.173
MTT value, replicate (unheaded line) (H322; deguelin 10^−8M): 0.172 (2×) and 0.174
Avg. % con (H322; deguelin 10^−10M): 0.84 % con
MTT value, mean of replicates (unheaded line) (H322; deguelin 10^−10M): 0.163
MTT value, replicate (unheaded line) (H322; deguelin 10^−10M): 0.153 and 0.16 and 0.177
Avg. % con (H322; deguelin 10^−12M): 0.86 % con
MTT value, mean of replicates (unheaded line) (H322; deguelin 10^−12M): 0.166
MTT value, replicate (unheaded line) (H322; deguelin 10^−12M): 0.168 and 0.16 and 0.17
bFGF-induced angiogenesis in Matrigel plugs [2]: markedly inhibit
